Experimental data from patent publication US8747810B2, “Compositions and methods for imaging tissues, organs and tumors” (President and Fellows of Harvard College, priority 2009, dated 2014).
Read-outs that look alike come from different tables or passages of the source.

Columns and labels:
[1] = tested on: subcutaneous B16F10 melanoma tumor; assay: Biodistribution of 99mTc complexes in mice bearing subcutaneous B16F10 melanoma tumor; format: in vivo; details: for tumor uptake and retention (in words): mouse, in vivo
Text: Biodistribution of 99 mTc complexes in mice bearing subcutaneous B16F10 melanoma tumor was studied for complexes Tc-1-Tc-6.

[2] = target: T1, σ2 receptor (Rattus norvegicus, UniProt Q5U3Y7); assay: σ2 receptor competition binding assay, [3H]-DTG, rat liver membranes
T1 construct: Rat liver membranes were prepared from male Sprague-Dawley rat livers as previously described; from tissue; host or cells: rat (Sprague-Dawley) liver membranes
T1 sequence (Q5U3Y7 1-176): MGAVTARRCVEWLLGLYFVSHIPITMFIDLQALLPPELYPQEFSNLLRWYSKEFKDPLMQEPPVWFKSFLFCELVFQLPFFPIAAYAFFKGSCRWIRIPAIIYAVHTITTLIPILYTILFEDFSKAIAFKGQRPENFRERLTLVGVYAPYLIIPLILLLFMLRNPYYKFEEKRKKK
Procedure: Rat liver membranes were prepared from male Sprague-Dawley rat livers as previously described (Eur. J. Pharmacol.-Mol. Pharmacol. Sect. 1994, 268, 9-18). The in vitro σ2 receptor binding affinities of rhenium coordinated complexes were determined in a competition assay using rat livers and [^3H]-DTG (31 Ci/mmol, NEN Life Science Inc., Cambridge, Mass.) as radioligand in the presence of 10 μM 1-pyrrolidinylethyl 3,4-dichlorophenylacetate oxalate (ACT915 oxalate) to mask σ1 receptors (Bioorg. & Med. Chem. Lett. 2000, 10, 17-18). Competition assays were performed with twelve concentrations of the nonradioactive rhenium complexes ranging from […] to 1×10^−3 and protein samples (0.15 mg of membrane protein) in a total volume of 0.25 mL of Tris-HCl (50 mM, pH 8.0) for 120 min at 25° C. All other manipulations and data analysis were performed as described vide supra for the σ1—receptor assays.

[3] = target: T2, σ1 receptor (Cavia porcellus, UniProt Q60492); assay: σ1 receptor competition binding assay, [3H]-(+)-pentazocine; set-up: species or system guinea pig
T2 construct: The membranes were prepared from guinea pig brain (minus cerebellum) as described above; from tissue; host or cells: guinea pig brain (minus cerebellum) membranes
T2 sequence (Q60492 whole entry): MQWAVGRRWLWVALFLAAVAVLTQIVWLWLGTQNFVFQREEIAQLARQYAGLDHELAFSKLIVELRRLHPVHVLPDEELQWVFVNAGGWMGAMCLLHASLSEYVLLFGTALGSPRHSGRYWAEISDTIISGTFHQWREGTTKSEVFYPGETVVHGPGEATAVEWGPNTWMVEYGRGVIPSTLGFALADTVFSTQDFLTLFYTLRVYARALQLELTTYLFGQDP
Procedure: […] See, Mol. Neuropharmacol. 1993, 3, 117-126.
The membranes were prepared from guinea pig brain (minus cerebellum) as described above and stored at −70° C. Twelve concentrations of the nonradioactive rhenium complexes ranging from 1×10^−11 to 1×10^−3 and protein samples (0.15 mg of membrane protein) were incubated with 5 nM [^3H]-(+)-pentazocine in a total volume of 0.25 mL of Tris-HCl (50 mM, pH 8.0). Incubations were carried out for 120 min at 25° C. All assays were terminated by dilution with 5 mL of ice-cold Tris-HCl (10 mM), pH 8.0, and solution were filtered through glass-fiber filters (Whatman GF/F; presoaked in 0.5% polyethyleneimine for 30 min at 25° C.). Filters were then washed three times with 5 mL of ice-cold Tris-HCl (50 mM, pH 8.0), and counted in Hionic-Fluor cocktail (Packard, Groningen, the Netherlands). The corresponding IC50 values were determined with Origin 6.0 software (OriginLab, Northampton, Mass.) and were used for the calculation of the apparent Ki values with the Cheng-Prusoff equation. See, Biochem. Pharmacol. 1973, 22, 3099-3108.

[4] = target: T3, 5HT1A receptor (Rattus norvegicus, UniProt P19327); assay: 5HT1A receptor competition binding assay, [3H]-8-OH-DPAT, rat hippocampus
T3 construct: hippocampal homogenates that were prepared from Sprague Dawley rat hippocampus; from tissue; host or cells: rat (Sprague-Dawley) hippocampus membranes
T3 sequence (P19327 1-422): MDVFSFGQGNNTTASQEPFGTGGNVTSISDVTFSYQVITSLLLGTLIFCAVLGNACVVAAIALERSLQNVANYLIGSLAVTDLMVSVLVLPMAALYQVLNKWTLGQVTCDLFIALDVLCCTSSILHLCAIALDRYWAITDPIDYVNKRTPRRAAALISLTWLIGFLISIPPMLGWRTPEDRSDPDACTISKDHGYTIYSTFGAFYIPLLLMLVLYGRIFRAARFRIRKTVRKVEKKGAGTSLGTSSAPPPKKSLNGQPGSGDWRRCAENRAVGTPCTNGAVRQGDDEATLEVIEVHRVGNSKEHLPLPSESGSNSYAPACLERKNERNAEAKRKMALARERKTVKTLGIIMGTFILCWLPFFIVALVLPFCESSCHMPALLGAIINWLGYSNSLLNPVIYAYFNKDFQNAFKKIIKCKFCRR
Procedure: The in vitro 5HT1A binding affinities of rhenium coordinated complexes were determined in a competition assay using rat hippocampus and high-affinity 5HT1A-ligand [^3H]-8-OH-DPAT (135 Ci/mmol, NEN Life Science Inc., Cambridge, Mass.). See, Brain Res. 1995, 673, 217-225.
Male Sprague-Dawley rats (weighing 150-170 g) were sacrificed using anesthesia agent isoflurane. The brains were rapidly removed, and hippocampus, frontal cortex, hypothalamus, and striatum were hand-dissected on ice and stored at −70° C. Tissue was thawed at room temperature and homogenized using a Brinkmann Polytron tissue disrupter in 50 volumes (wt/vol) of ice-cold 50 mM Tris-HCl buffer (pH 7.4). The suspension was centrifuged twice at 27,000 g for 20 min at 4° C. The membrane pellets were resuspended in 50 volumes of (wt/vol) Tris-HCl buffer and incubated at 37° C. for 20 min in a water bath, before a final centrifugation step (27,000 g; 20 min; 4° C.). The final tissue pellets were stored at −70° C. until assayed.
Twelve concentrations of the nonradioactive rhenium complexes ranging from 1×10^−11 to 1×10^−4 and protein samples (0.15 mg of membrane protein) were incubated with 1.5 nM [^3H]-8-OH-DPAT in a total volume of 0.25 mL of Tris-HCl (50 mM, pH 7.4, 10 mM MgSO4). Incubations were carried out for 60 min at 25° C. All assays were terminated by dilution with 5 mL of ice-cold Tris-HCl (10 mM), pH 7.4, and solution were filtered through glass-fiber filters (Whatman GF/F; presoaked in 0.5% polyethyleneimine for 30 min at 25° C.). Filters were then washed three times with 5 mL of ice-cold Tris-HCl (50 mM, pH 7.4), and counted in Hionic-Fluor cocktail (Packard, Groningen, the Netherlands). The corresponding IC50 values were determined with Origin 6.0 software (OriginLab, Northampton, Mass.) and were used for the calculation of the apparent Ki values with the Cheng-Prusoff equation. See, Biochem. Pharmacol. 1973, 22, 3099-3108.
Rhenium complexes were synthesized by the reaction of [ReBr(CO)3(C4H8O)]2 with the final ligands in acetonitrile at room temperature. The in vitro 5-HT1A binding affinities of complexes Re(CO)3-L1-L9 were determined in competitive receptor binding assay using hippocampal homogenates that were prepared from Sprague Dawley rat hippocampus and the high-affinity [^3H]-8-OH-DPAT as the 5HT1A specific ligand.
The in vitro affinity of Re(CO)3-L complexes for the 5-HT1A receptors were assessed by their ability to compete with the high affinity 5HT1A radioligand [^3H]-8-OH-DPAT.

[5] = target: D2 receptors (Homo sapiens, UniProt P14416); assay: D2 receptor affinity; format: binding
D2 receptors, sequence (P14416 whole entry): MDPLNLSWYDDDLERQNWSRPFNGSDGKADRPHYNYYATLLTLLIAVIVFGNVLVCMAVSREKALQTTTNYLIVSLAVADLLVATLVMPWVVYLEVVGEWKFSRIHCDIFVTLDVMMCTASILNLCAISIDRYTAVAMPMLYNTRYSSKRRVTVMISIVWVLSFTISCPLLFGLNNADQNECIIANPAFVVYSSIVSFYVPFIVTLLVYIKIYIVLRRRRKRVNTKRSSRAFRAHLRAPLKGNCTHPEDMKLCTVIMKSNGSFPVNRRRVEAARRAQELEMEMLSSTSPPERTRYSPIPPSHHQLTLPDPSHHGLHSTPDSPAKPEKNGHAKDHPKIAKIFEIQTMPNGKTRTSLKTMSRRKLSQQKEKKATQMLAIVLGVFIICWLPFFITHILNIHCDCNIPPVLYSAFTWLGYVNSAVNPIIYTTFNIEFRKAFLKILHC

[6] = quantity not named in table head, methods calculate apparent Ki (Cheng-Prusoff), read-out: σ-2
[7] = quantity not named in table head, methods calculate apparent Ki (Cheng-Prusoff), read-out: σ-1
[8] = quantity not named in table head, methods calculate apparent Ki (Cheng-Prusoff), read-out: 5HT1A

| Ki [2, 6] [nM] | Ki [3, 7] [nM] | Ki [4, 8] [nM] | Structure (SMILES) | further results |
| --- | --- | --- | --- | --- |
| 223 ± 6.54 | 29.7 ± 4.31 |  | O=C1C[S][Re-]23(=[O])[S]CC[N+]2(CCCCCCN2CCC(c4ccccc4)CC2)CC[N]13 (stereo not shown) [Re-32] |  |
|  |  | 120 ± 21 | COc1ccccc1C1CCN(CCCCCC[N+]23Cc4ccccc4[O][Re-2]2(=[C]=O)(=[C]=O)(=[C]=O)[n+]2ccccc2C3)CC1 (stereo not shown) [Re-L11] |  |
| 3.37 | 4400 ± 280 | 940 ± 216 | COc1cc2c(cc1OC)CN(CCCCCC[N+]13Cc4ccccc4[O][Re-2]1(=[C]=O)(=[C]=O)(=[C]=O)[n+]1ccccc1C3)CC2 (stereo not shown) [Re-L12] |  |
| 35.6 ± 2.83 | 5310 ± 973 |  | COc1cc2c(cc1OC)CN(CCCCCC[N+]13Cc4ccccc4[O][Re-2]1(=[C]=O)(=[C]=O)(=[C]=O)[n+]1ccccc1C3)C2 (stereo not shown) [Re-L13] |  |
| 223 ± 8.78 | 39.3 ± 1.43 | 629 ± 12 | O=[C]=[Re-2]12(=[C]=O)(=[C]=O)[NH2+]CC[N+]1(CCCCCCN1CCC(c3ccccc3)CC1)Cc1ccccc1[O]2 (stereo not shown) [Re-L16a] |  |
| 6420 ± 387 | 9.12 ± 0.14 | 439 ± 121 | C[N+]1(C)CC[N+]2(CCCCCCN3CCC(c4ccccc4)CC3)Cc3ccccc3[O][Re-2]12(=[C]=O)(=[C]=O)=[C]=O (stereo not shown) [Re-L16b] |  |
|  |  | 48 ± 5 | COc1ccccc1C1CCN(CCCCCC[N+]23CC[NH2+][Re-2]2(=[C]=O)(=[C]=O)(=[C]=O)[O]c2ccccc2C3)CC1 (stereo not shown) [Re-L17a] |  |
|  |  | 18 ± 8 | COc1ccccc1C1CCN(CCCCCC[N+]23CC[N+](C)(C)[Re-2]2(=[C]=O)(=[C]=O)(=[C]=O)[O]c2ccccc2C3)CC1 (stereo not shown) [Re-L17b] |  |

Further lines, the compound ahead of its results:

| Structure (SMILES) | Ki [2, 6] [nM] | Ki [3, 7] [nM] | Ki [4, 8] [nM] | further results |
| --- | --- | --- | --- | --- |
| CCN(CC)CCN(Cc1ccccn1)Cc1ccccc1[O][99Tc].[C-]#[O+].[C-]#[O+].[C-]#[O+] [99 mTc-2] |  |  |  | tumor uptake ([1]; 1 h postinjection): 3.2 % ID/g; tumor retention over a 6 h period ([1]; share of tumor uptake retained over 6 h): 65% |
| [99Tc][O]c1ccccc1CN(CCN1CCCCC1)Cc1ccccn1.[C-]#[O+].[C-]#[O+].[C-]#[O+] [99 mTc-3] |  |  |  | tumor uptake and retention (in words) [1]: increase in tumor retention over time |
| CCN(CC)CC[N+]12CC[N+](CC)(CC)[99Tc-5]1([C]#[O+])([C]#[O+])([C]#[O+])[O]c1ccccc1C2 (stereo not shown) [99 mTc-6] |  |  |  | tumor uptake and retention (in words) [1]: poor tumor uptake and retention |
| O=C1C[S][Re-]23(=[O])[S]CC[N+]2(CCCCCCCN2CCC(c4ccccc4)CC2)CC[N]13 (stereo not shown) [Re-33] |  |  |  | Ki [2]: 188 ± 18.8 nM; Ki [3]: 22.9 ± 1.78 nM |
| O=C1CN(CCCCCCN2CCC(c3ccccc3)CC2)CC[S][Re]2(=[O])[S]CC[N]12 (stereo not shown) [Re-40] | 43.4 ± 0.99 | 30 ± 6.3 |  |  |
| O=C1C[N+]2(CCCCCCCN3CCC(c4ccccc4)CC3)CC[S][Re-]23(=[O])[S]CC[N]13 (stereo not shown) [Re-41] |  |  |  | Ki [2]: 21.25 ± 0.19 nM; Ki [3]: 7.6 ± 0.67 nM |
| COc1cc2c(cc1OC)CN(CCCCCCN1CC[S][Re]3(=[O])[S]CC[N]3C(=O)C1)CC2 (stereo not shown) [Re-42] | 12.1 ± 0.61 | 672 ± 17.6 |  |  |
| COc1cc2c(cc1OC)CN(CCCCCCN1CC[S][Re]3(=[O])[S]CC[N]3C(=O)C1)C2 (stereo not shown) [Re-43] | 11.5 ± 0.2 | 1480 ± 227 |  |  |
| O=C1CN(CCCCCCN2Cc3ccccc3C2)CC[S][Re]2(=[O])[S]CC[N]12 (stereo not shown) [Re-44] | 61 ± 3.91 | 64 ± 5.9 |  |  |
| CCCN(CCCCCCN1CC[S][Re]2(=[O])[S]CC[N]2C(=O)C1)C1CCc2cccc(O)c2C1 (stereo not shown) [Re-45-HO] |  |  | 0.42 ± 0.08 |  |
| CCCN(CCCCCC[N+]12CC[S][Re-]13(=[O])[S]CC[N]3C(=O)C2)C1CCc2cccc(OC)c2C1 (stereo not shown) [Re-45] |  |  |  | Ki [4]: 1.21 ± 0.13 nM; Ki [2]: 442 ± 106 nM; Ki [3]: 41 ± 3.58 nM; Ki [5]: 1200 nM |
| CCCN(CCCN1CC[S][Re]2(=[O])[S]CC[N]2C(=O)C1)C1CCc2c(O)cccc2C1 (stereo not shown) [Re-46 HO] |  |  | 81.4 ± 5.24 |  |
| CCCN(CCCN1CC[S][Re]2(=[O])[S]CC[N]2C(=O)C1)C1CCc2c(cccc2OC)C1 (stereo not shown) [Re-46] |  |  | 91.3 ± 4.1 |  |
| CCCN(CCCCCCN1CC[S][Re]2(=[O])[S]CC[N]2C(=O)C1)C1CCc2c(O)cccc2C1 (stereo not shown) [Re-47 HO] |  |  | 26 ± 2.71 |  |
| CCCN(CCCCCCN1CC[S][Re]2(=[O])[S]CC[N]2C(=O)C1)C1CCc2c(cccc2OC)C1 (stereo not shown) [Re-47] | 244 ± 8.56 | 64.3 ± 1.27 | 15.4 ± 4.06 |  |
| COc1ccccc1N1CCN(CCC[N+]23Cc4ccccc4[O][Re-5]2([C]#[O+])([C]#[O+])([C]#[O+])[n+]2ccccc2C3)CC1 (stereo not shown) [Re-L1] |  |  |  | Ki ([4]; Example 62, Re(CO)3-L complexes, [3H]-8-OH-DPAT, rat hippocampal homogenates, read-out: Ki, 5-HT1A receptor affinity): 83.2 ± 2.2 nM |
| [99Tc][O]c1ccccc1CN(CCCN1CCCCC1)Cc1ccccn1.[C-]#[O+].[C-]#[O+].[C-]#[O+] [Tc-4] |  |  |  | tumor uptake and retention (in words) [1]: increase in tumor retention over time |
| [99Tc][O]c1ccccc1CN(CCCCCCN1CCCCC1)Cc1ccccn1.[C-]#[O+].[C-]#[O+].[C-]#[O+] [Tc-5] |  |  |  | tumor uptake and retention (in words) [1]: increase in tumor retention over time |
